In one data set the target is T1, Human ASBT (Homo sapiens, UniProt Q12908).
T1 construct: expressed in transfected cells; host or cells: HEK293T
T1 sequence (Q12908 1-348): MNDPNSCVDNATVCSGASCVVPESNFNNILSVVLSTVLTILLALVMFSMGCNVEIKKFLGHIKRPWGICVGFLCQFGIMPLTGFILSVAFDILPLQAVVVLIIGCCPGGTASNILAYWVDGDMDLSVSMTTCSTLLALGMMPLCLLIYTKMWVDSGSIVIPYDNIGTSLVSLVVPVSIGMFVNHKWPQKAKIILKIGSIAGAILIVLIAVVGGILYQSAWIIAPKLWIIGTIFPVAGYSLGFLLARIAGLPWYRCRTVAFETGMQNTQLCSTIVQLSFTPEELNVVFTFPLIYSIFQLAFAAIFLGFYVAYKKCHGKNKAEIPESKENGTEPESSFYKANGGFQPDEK
As to the kind of experiment: ASBT inhibition assay: [3H]-taurocholic acid uptake in HEK293T cells transiently transfected with human ASBT. The format is cell-based. Particulars: for inhibition at 10 µM: HEK-293T; for IC50: inhibitor concentration that gives 50% taurocholate uptake compared to no inhibitor control. The procedure:
In vitro inhibitory activity of all target compounds against ASBT was evaluated using a radioisotope-based assay. All the newly synthesized derivatives were initially tested at 10 μM concentration (Table 1).
HEK293T was obtained from the American Type Culture Collection (Manassas, VA, USA), and grown in MEM supplemented with 100 U/mL penicillin and […] streptomycin and 10% heat-inactivated fetal bovine serum. Human ASBT expression construct was prepared as previously described. HEK293T cells were seeded in 12 well plates and transiently transfected with 0.5 μg/well pcDNA3.1/ASBT or negative control plasmid pcDNA3.1 using lipofactamine 2000 (Invitrogen, Carlsbad, CA, USA) according to the manufacturer’s instructions. Twenty-four hours after transfection, HEK293T cells were assayed for taurocholic acid uptake as previously described with minor modifications. […] To terminate the transport process, the plates were chilled on ice and the cells were immediately washed with ice-cold buffer three times. Cells were lysed with 0.3 mL lysis buffer (0.5% triton x-100) and shaken vigorously for 20 min. The radioactivity of the cell lysate was counted using a MicroBeta^2 Liquid Scintillation and Luminescence Counter (PerkinElmer Life Sciences). Protein concentration of the lysate was used to normalize uptake activity.
The inhibition rate was calculated using the following formula: Inhibition Rate (%) = [(1 − (A − C)/(B − C)] × 100
A, [^3H] uptake value of test compound in [^3H]-TCA buffer added to pcDNA3.1/ASBT transfected cells; B, [^3H] uptake value of DMSO (without inhibitor) in [^3H]-TCA buffer added to pcDNA3.1/ASBT transfected cells; C, [^3H] uptake value of Blank sample (DMSO) in [^3H]-TCA buffer added to empty vector (pcDNA3.1) transfected cells.

By inhibition is commonly meant the percentage by which the read-out fell short of the control. Higher therefore signals strong suppression. What is called IC50 is the concentration at which inhibition is half-maximal. Low readings indicate greater potency in that assay, high ones weaker potency in that assay. By melting point is commonly meant the temperature, or range, at which the solid turns liquid.

`O=C(Nc1ccc(F)c(Cl)c1)c1ccccc1NS(=O)(=O)c1cccc([N+](=O)[O-])c1` [Compound 5a2, N-(3-Chloro-4-fluorophenyl)-2-(3-nitrophenylsulfonamido)benzamide] came in with a melting point of 203.4 to 204.1 °C. In addition, at Human ASBT, testing at 10 µM gave an inhibition of 95.4 ± 3.3% and the IC50 came out at 1320 ± 280 nM.
On the same counts, the results for `O=C(Nc1cccc(OC(F)F)c1)c1ccccc1NS(=O)(=O)c1cccc([N+](=O)[O-])c1` [Compound 5a3, N-(3-(Difluoromethoxy)phenyl)-2-(3-nitrophenylsulfonamido)benzamide] are 127.4 to 128.2 °C, 89 ± 2.6% and 2840 ± 520 nM.
Taken in the same sequence, the figures for `O=C(Nc1cccc(OC(F)(F)F)c1)c1ccccc1NS(=O)(=O)c1cccc([N+](=O)[O-])c1` [Compound 5a4, 2-(3-Nitrophenylsulfonamido)-N-(3-(trifluoromethoxy)phenyl)benzamide] were 141.4 to 142 °C, 83.8 ± 3.4% and 1230 ± 120 nM.
In turn, `O=C(Nc1cc(F)cc(F)c1)c1ccccc1NS(=O)(=O)c1cccc([N+](=O)[O-])c1` [Compound 5a5, N-(3,5-Difluorophenyl)-2-(3-nitrophenylsulfonamido)benzamide] gave a melting point of 181.1 to 181.9 °C. On Human ASBT, the inhibition at 10 µM stood at 21.6 ± 4.1%.
On the same counts, the results for `COc1ccc(NC(=O)c2ccccc2NS(=O)(=O)c2cccc([N+](=O)[O-])c2)cc1O` [Compound 5a6, N-(3-Hydroxy-4-methoxyphenyl)-2-(3-nitrophenylsulfonamido)benzamide] are 168.9 to 170.1 °C and 32.1 ± 3.3%.
For `O=C(Nc1cc(Cl)cc(Cl)c1)c1ccccc1NS(=O)(=O)c1cccc([N+](=O)[O-])c1` [Compound 5a7, N-(3,5-Dichlorophenyl)-2-(3-nitrophenylsulfonamido)benzamide], the melting point was 209.9 to 210.4 °C. The same compound yielded an inhibition at 10 µM against Human ASBT of 56.3 ± 2.8%.
For the compound `O=C(Nc1cccc(Cl)c1)c1ccccc1NS(=O)(=O)c1cccc([N+](=O)[O-])c1` [Compound 5a9, N-(3-Chlorophenyl)-2-(3-nitrophenylsulfonamido)benzamide], the melting point is 167.3 to 168.1 °C. In addition, on Human ASBT, at 10 µM the inhibition was 46.9 ± 3.6%.
As to `Cc1ccc(NC(=O)c2ccccc2NS(=O)(=O)c2cccc([N+](=O)[O-])c2)cc1C(F)(F)F` [Compound 5a10, N-(4-Methyl-3-(trifluoromethyl)phenyl)-2-(3-nitrophenylsulfonamido)benzamide], the melting point is 166.4 to 167.4 °C. Further, at Human ASBT, the inhibition at 10 µM came out at 90.7 ± 4.2% and the IC50 worked out at 1490 ± 90 nM.
Consider `O=C(Nc1ccc(F)c(Cl)c1)c1cccc(NS(=O)(=O)c2cccc([N+](=O)[O-])c2)c1` [Compound 5b1, N-(3-Chloro-4-fluorophenyl)-3-(3-nitrophenylsulfonamido)benzamide], for which the melting point was 161.3 to 162.6 °C. Also, 10 µM produced 66.3 ± 5% inhibition against Human ASBT.
`O=C(Nc1cccc(OC(F)F)c1)c1cccc(NS(=O)(=O)c2cccc([N+](=O)[O-])c2)c1` [Compound 5b2, N-(3-(Difluoromethoxy)phenyl)-3-(3-nitrophenylsulfonamido)benzamide]: the melting point is 159.8 to 160.6 °C. This compound also showed an inhibition at 10 µM at Human ASBT of 30.6 ± 4.3%.
Taken in the same sequence, the figures for `O=C(Nc1ccc(Cl)c(Cl)c1)c1cccc(NS(=O)(=O)c2cccc([N+](=O)[O-])c2)c1` [Compound 5b3, N-(3,4-dichlorophenyl)-3-(3-nitrophenylsulfonamido)benzamide] were 192.5 to 193.7 °C and 62.4 ± 2.9%.
As for `O=C(Nc1cccc(OC(F)(F)F)c1)c1ccc(NS(=O)(=O)c2cccc([N+](=O)[O-])c2)cc1` [Compound 5c1, 4-(3-Nitrophenylsulfonamido)-N-(3-(trifluoromethoxy)phenyl)benzamide], the melting point is 177.3 to 178.2 °C. Besides, on Human ASBT, 10 µM produced 29.6 ± 3.5% inhibition.
On the same counts, the results for `O=C(Nc1ccc(Cl)c(Cl)c1)c1ccc(NS(=O)(=O)c2cccc([N+](=O)[O-])c2)cc1` [Compound 5c2, N-(3,4-Dichlorophenyl)-4-(3-nitrophenylsulfonamido)benzamide] are 189.2 to 190.5 °C and 34.8 ± 3.7%.
`O=C(Nc1ccc(Cl)cc1Cl)c1ccccc1NS(=O)(=O)c1ccc([N+](=O)[O-])cc1` [Compound 5d1, N-(2,4-Dichlorophenyl)-2-(4-nitrophenylsulfonamido)benzamide] gave a melting point of 220.6 to 221.3 °C. This compound also had an inhibition at 10 µM at Human ASBT of 66.9 ± 3.5%.
On the same counts, the results for `O=C(Nc1ccc(F)c(Cl)c1)c1ccccc1NS(=O)(=O)c1ccc([N+](=O)[O-])cc1` [Compound 5d2, N-(3-Chloro-4-fluorophenyl)-2-(4-nitrophenylsulfonamido)benzamide] are 226.4 to 227.1 °C and 75.5 ± 4.4%.
On the same counts, the results for `Cc1ccc(NC(=O)c2ccccc2NS(=O)(=O)c2ccc([N+](=O)[O-])cc2)cc1C(F)(F)F` [Compound 5d3, N-(4-Methyl-3-(trifluoromethyl)phenyl)-2-(4-nitrophenylsulfonamido)benzamide] are 198.8 to 199.6 °C and 73.7 ± 3.8%.
Taken in the same sequence, the figures for `O=C(Nc1cccc(OC(F)F)c1)c1ccccc1NS(=O)(=O)c1ccc([N+](=O)[O-])cc1` [Compound 5d4, N-(3-(Difluoromethoxy)phenyl)-2-(4-nitrophenylsulfonamido)benzamide] were 203.9 to 205 °C and 58.8 ± 4.3%.
`O=C(Nc1cccc(OC(F)(F)F)c1)c1ccccc1NS(=O)(=O)c1ccc([N+](=O)[O-])cc1` [Compound 5d5, 2-(4-Nitrophenylsulfonamido)-N-(3-(trifluoromethoxy)phenyl)benzamide] returned a melting point of 198.8 to 199.4 °C. Further, at Human ASBT, the inhibition at 10 µM was found to be 66.7 ± 3.9%.
On the same counts, the results for `O=C(Nc1ccc(Cl)c(Cl)c1)c1ccccc1NS(=O)(=O)c1ccc([N+](=O)[O-])cc1` [Compound 5d6, N-(3,4-Dichlorophenyl)-2-(4-nitrophenylsulfonamido)benzamide] are 243.4 to 243.6 °C and 73.9 ± 2.2%.
Compound `O=C(Nc1ccc(Cl)cc1Cl)c1ccccc1NS(=O)(=O)c1cccc(F)c1` [Compound 5e1, N-(2,4-Dichlorophenyl)-2-(3-fluorophenylsulfonamido)benzamide] yielded a melting point of 146.3 to 147.6 °C. This compound also yielded an inhibition at 10 µM against Human ASBT of 42.6 ± 3.4%.
As for `O=C(Nc1ccc(F)c(Cl)c1)c1ccccc1NS(=O)(=O)c1cccc(F)c1` [Compound 5e2, N-(3-Chloro-4-fluorophenyl)-2-(3-fluorophenylsulfonamido)benzamide], the melting point was in the range of 178.6 to 179.9 °C. The inhibition at 10 µM at Human ASBT was 63.2 ± 3.8%.
On the same counts, the results for `Cc1ccc(NC(=O)c2ccccc2NS(=O)(=O)c2cccc(F)c2)cc1C(F)(F)F` [Compound 5e3, 2-(3-Fluorophenylsulfonamido)-N-(4-methyl-3-(trifluoromethyl)phenyl)benzamide] are 168.8 to 169.6 °C and 57.6 ± 2.9%.
`O=C(Nc1cccc(OC(F)(F)F)c1)c1ccccc1NS(=O)(=O)c1cccc(F)c1` [Compound 5e4, 2-(3-Fluorophenylsulfonamido)-N-(3-(trifluoromethoxy)phenyl)benzamide] displayed a melting point of 166.8 to 168.7 °C. 10 µM produced 45.7 ± 3.6% inhibition against Human ASBT.
Taken in the same sequence, the figures for `O=C(Nc1ccc(Cl)c(Cl)c1)c1ccccc1NS(=O)(=O)c1cccc(F)c1` [Compound 5e5, N-(3,4-Dichlorophenyl)-2-(3-fluorophenylsulfonamido)benzamide] were 179.1 to 180.6 °C and 40.6 ± 2.8%.
The compound `COc1cccc(S(=O)(=O)Nc2ccccc2C(=O)Nc2ccc(Cl)cc2Cl)c1` [Compound 5f1, N-(2,4-Dichlorophenyl)-2-(3-methoxyphenylsulfonamido)benzamide] came in with a melting point of 138.8 to 139.7 °C. At Human ASBT, the inhibition at 10 µM amounted to 21.2 ± 3%.
At Human ASBT, `O=C(Nc1ccc(Cl)c(Cl)c1)c1ccccc1NS(=O)(=O)c1cccc(OC(F)(F)F)c1` [Compound 5g5, N-(3,4-Dichlorophenyl)-2-(3-(trifluoromethoxy)phenylsulfonamido)benzamide] displayed an inhibition at 10 µM of 80.8 ± 4.3% and an IC50 of 1220 ± 200 nM.

Source of the values: PMC6269792, “Arylsulfonylamino-Benzanilides as Inhibitors of the Apical Sodium-Dependent Bile Salt Transporter (SLC10A2)” (Molecules, 2013).
